Results from patent publication US5932410A, “Assay for the detection of proteases” (Commonwealth Scientific and Industrial Research …, priority 1994, dated 1999).
Where a SMILES comes first, the peptide text is derived from it. The star is where a group is joined. Cbz = O=C(OCc1ccccc1)*

How the values were obtained:
[1] = target: prostate specific antigen (PSA) (Homo sapiens, UniProt P07288); experiment: Esterase assay, PSA on peptide ester substrates; type: biochemical; settings: PSA; rate of hydrolysis
prostate specific antigen (PSA), sequence (P07288 25-261): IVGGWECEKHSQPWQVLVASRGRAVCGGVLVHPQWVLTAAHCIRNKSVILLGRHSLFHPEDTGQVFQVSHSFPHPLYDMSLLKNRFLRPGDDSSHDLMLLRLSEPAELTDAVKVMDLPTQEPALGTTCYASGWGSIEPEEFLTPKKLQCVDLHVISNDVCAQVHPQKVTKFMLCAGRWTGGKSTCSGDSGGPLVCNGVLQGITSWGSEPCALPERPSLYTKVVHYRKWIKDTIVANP
From the text: (§1) Advantage was taken of this activity to develop an "esterase" assay which uses a pH indicator to visualise the hydrogen ion release caused by the action of proteases on peptide-ester substrates. A series of twenty compounds of the form, carbobenzoxy alanyl-X-methyl ester (Z-AX-OMe) were synthesised where "X" is one of the naturally occurring amino acids. These substrates were used in a 96 well microtitre plate assay to screen each mutant enzyme for activity and specificity. The reactions were followed visually or quantified using a standard ELISA plate reader.
In all eleven compounds were synthesised and purified and tested where X was the residue listed below.

[2] = tested on: Trypsin; settings: trypsin as test enzyme; cited from earlier work
[3] = target: Elastase (Sus scrofa, UniProt P00772); experiment: Esterase assay, elastase; type: biochemical; settings: Z-AX-OMe substrate; for Esterase rate, Elastase: X = P1 residue, rates approximately ± 10%; for % activity, Elastase: normalised to alanine
Elastase, sequence (P00772 27-266): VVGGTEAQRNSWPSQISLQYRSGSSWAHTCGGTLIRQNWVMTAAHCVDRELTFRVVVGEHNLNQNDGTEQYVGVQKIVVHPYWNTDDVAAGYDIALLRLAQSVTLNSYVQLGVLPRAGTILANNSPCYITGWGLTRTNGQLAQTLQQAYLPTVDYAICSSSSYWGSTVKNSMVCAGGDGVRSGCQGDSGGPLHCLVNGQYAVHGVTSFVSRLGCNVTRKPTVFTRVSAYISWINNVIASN
From the text: as §1, with “reader. The esterase assay, using trypsin as a test enzyme and Z-Ala-Arg-OMe as substrate, was more sensitive as than traditional trypsin substrates (three times the rate obtained with benzoyl arginine ethyl aster and twenty times the rate of benzoyl arginine p-nitroanilide) (Whittaker et al., Analytical Biochemistry, 220, 238-243, 1994).” for “reader.”
(§2) The present inventors produced a panel of substrates carbobenzoxy alanyl-X-methyl eater (Z-AX-OMe) where X is one of the naturally occurring amino acids. The reactivity of these substrates with a number of serine proteases is set out in Table 1 and FIG. 1.
(§3) Rates are A580 change/min./mg protease. Rates are also shown as a […]

[4] = target: Chymotrypsin (Bos taurus, UniProt P00766); experiment: Esterase assay, chymotrypsin; type: biochemical; settings: Z-AX-OMe substrate; for Esterase rate, Chymotrypsin: X = P1 residue, rates approximately ± 10%; for % of maximum activity, Chymotrypsin: percentage of the maximum activity
From the text: as §1, with “reader. The esterase assay, using trypsin as a test enzyme and Z-Ala-Arg-OMe as substrate, was more sensitive as than traditional trypsin substrates (three times the rate obtained with benzoyl arginine ethyl aster and twenty times the rate of benzoyl arginine p-nitroanilide) (Whittaker et al., Analytical Biochemistry, 220, 238-243, 1994).” for “reader.”
as §2, §3

[5] = target: Thrombin (Homo sapiens, UniProt P00734); experiment: Esterase assay, thrombin; type: biochemical; settings: Z-AX-OMe substrate; for Esterase rate, Thrombin: X = P1 residue, rates approximately ± 10%; for % of maximum activity, Thrombin: percentage of the maximum activity
From the text: as §1, with “reader. The esterase assay, using trypsin as a test enzyme and Z-Ala-Arg-OMe as substrate, was more sensitive as than traditional trypsin substrates (three times the rate obtained with benzoyl arginine ethyl aster and twenty times the rate of benzoyl arginine p-nitroanilide) (Whittaker et al., Analytical Biochemistry, 220, 238-243, 1994).” for “reader.”
as §2, §3

[6] = target: α-Lytic protease (Lysobacter enzymogenes, UniProt P00778); experiment: Esterase assay, α-lytic protease; type: biochemical; settings: Z-AX-OMe substrate; for Esterase rate, α-Lytic protease: X = P1 residue, rates approximately ± 10%; for % activity, α-Lytic protease: normalised to alanine
α-Lytic protease, sequence (P00778 25-397 limits assumed): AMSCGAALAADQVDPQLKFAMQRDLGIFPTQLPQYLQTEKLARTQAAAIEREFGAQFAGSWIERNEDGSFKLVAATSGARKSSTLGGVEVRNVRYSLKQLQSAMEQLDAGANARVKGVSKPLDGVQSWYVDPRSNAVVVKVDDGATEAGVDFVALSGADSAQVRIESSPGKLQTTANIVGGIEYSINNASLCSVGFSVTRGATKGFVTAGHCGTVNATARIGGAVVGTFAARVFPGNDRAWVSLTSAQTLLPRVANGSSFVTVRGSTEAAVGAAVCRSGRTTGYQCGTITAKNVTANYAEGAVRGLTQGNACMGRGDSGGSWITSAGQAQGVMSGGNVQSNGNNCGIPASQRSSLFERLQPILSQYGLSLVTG
From the text: as §1, with “reader. The esterase assay, using trypsin as a test enzyme and Z-Ala-Arg-OMe as substrate, was more sensitive as than traditional trypsin substrates (three times the rate obtained with benzoyl arginine ethyl aster and twenty times the rate of benzoyl arginine p-nitroanilide) (Whittaker et al., Analytical Biochemistry, 220, 238-243, 1994).” for “reader.”
as §2, §3

[7] = target: Proteinase K (Parengyodontium album, UniProt P06873); experiment: Esterase assay, proteinase K; type: biochemical; settings: Z-AX-OMe substrate; for Esterase rate, Proteinase K: X = P1 residue, rates approximately ± 10%; for % of maximum activity, Proteinase K: percentage of the maximum activity
Proteinase K, sequence (P06873 106-384): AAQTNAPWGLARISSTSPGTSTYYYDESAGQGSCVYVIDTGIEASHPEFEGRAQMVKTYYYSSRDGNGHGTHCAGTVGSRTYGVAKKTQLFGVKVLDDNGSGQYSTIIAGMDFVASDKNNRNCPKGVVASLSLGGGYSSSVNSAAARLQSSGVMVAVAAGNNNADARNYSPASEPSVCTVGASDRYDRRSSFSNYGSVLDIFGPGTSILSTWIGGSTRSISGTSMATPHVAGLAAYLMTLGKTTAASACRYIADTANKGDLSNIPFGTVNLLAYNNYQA
From the text: as §1, with “reader. The esterase assay, using trypsin as a test enzyme and Z-Ala-Arg-OMe as substrate, was more sensitive as than traditional trypsin substrates (three times the rate obtained with benzoyl arginine ethyl aster and twenty times the rate of benzoyl arginine p-nitroanilide) (Whittaker et al., Analytical Biochemistry, 220, 238-243, 1994).” for “reader.”
as §2, §3

[8] = tested on: Subtilisin; experiment: Esterase assay, subtilisin; type: biochemical; settings: Z-AX-OMe substrate; for Esterase rate, Subtilisin: X = P1 residue, rates approximately ± 10%; for % of maximum activity, Subtilisin: percentage of the maximum activity
From the text: as §1, with “reader. The esterase assay, using trypsin as a test enzyme and Z-Ala-Arg-OMe as substrate, was more sensitive as than traditional trypsin substrates (three times the rate obtained with benzoyl arginine ethyl aster and twenty times the rate of benzoyl arginine p-nitroanilide) (Whittaker et al., Analytical Biochemistry, 220, 238-243, 1994).” for “reader.”
as §2, §3

[9] = tested on: Trypsin; experiment: Esterase assay, trypsin; type: biochemical; settings: Z-AX-OMe substrate; for Esterase rate, Trypsin: X = P1 residue, rates approximately ± 10%; for % of maximum activity, Trypsin: percentage of the maximum activity
From the text: as §1, with “reader. The esterase assay, using trypsin as a test enzyme and Z-Ala-Arg-OMe as substrate, was more sensitive as than traditional trypsin substrates (three times the rate obtained with benzoyl arginine ethyl aster and twenty times the rate of benzoyl arginine p-nitroanilide) (Whittaker et al., Analytical Biochemistry, 220, 238-243, 1994).” for “reader.”
as §2, §3

Row | SMILES | Rate relative to Ac-AlaValTyr-OMe (218) [1] [%] | Rate relative to benzoyl arginine ethyl ester [2] | Rate relative to benzoyl arginine p-nitroanilide [2] | Esterase rate, Elastase [3] | % activity, Elastase [3] [%] | Esterase rate, Chymotrypsin [4] | % of maximum activity, Chymotrypsin [4] [%] | Esterase rate, Thrombin [5] | % of maximum activity, Thrombin [5] [%] | Esterase rate, α-Lytic protease [6] | % activity, α-Lytic protease [6] [%] | Esterase rate, Proteinase K [7] | % of maximum activity, Proteinase K [7] [%] | Esterase rate, Subtilisin [8] | % of maximum activity, Subtilisin [8] [%] | Esterase rate, Trypsin [9] | % of maximum activity, Trypsin [9] [%]
1 | COC(=O)[C@H](Cc1ccc(O)cc1)NC(=O)[C@H](CC(C)C)NC(=O)[C@H](C)NC(C)=O [Ac-AlaLeuTyr-OMe] (Ac-Ala-Leu-Tyr-OMe) | 70 |  |  |  |  |  |  |  |  |  |  |  |  |  |  |  | 
2 | COC(=O)[C@H](Cc1ccc(O)cc1)NC(=O)[C@@H](NC(=O)[C@H](C)NC(=O)[C@@H](NC(C)=O)C(C)C)C(C)C [Ac-Val AlaValTyr-OMe] (Ac-VAVY-OMe) | 64.6 |  |  |  |  |  |  |  |  |  |  |  |  |  |  |  | 
3 | COC(=O)[C@H](CCCNC(=N)N)NC(=O)[C@H](C)NC(=O)OCc1ccccc1 [Arg, Z-Ala-Arg-OMe] (Cbz-Ala-Arg-OMe) |  | three times | twenty times | 0 A580 change/min./mg protease | 0 | 1.1 A580 change/min./mg protease | 2.0 | 8.7 A580 change/min./mg protease | 100 | 0 A580 change/min./mg protease | 0 | 24 A580 change/min./mg protease | 3.1 | 97 A580 change/min./mg protease | 4.5 | 355.4 A580 change/min./mg protease | 100
4 | COC(=O)[C@H](CCSC)NC(=O)[C@H](C)NC(=O)OCc1ccccc1 [Met] (Cbz-Ala-Met-OMe) |  |  |  | trace |  | 6.6 A580 change/min./mg protease | 12.0 | 0 A580 change/min./mg protease | 0 | 2.0 A580 change/min./mg protease | 32.3 | 525 A580 change/min./mg protease | 67.7 | 2149 A580 change/min./mg protease | 100 | 0 A580 change/min./mg protease | 0
5 | COC(=O)[C@H](Cc1ccccc1)NC(=O)[C@H](C)NC(=O)OCc1ccccc1 [Phe] |  |  |  | 0 A580 change/min./mg protease | 0 | 37.8 A580 change/min./mg protease | 68.5 | 0 A580 change/min./mg protease | 0 | 0 A580 change/min./mg protease | 0 | 342 A580 change/min./mg protease | 44.1 | 998 A580 change/min./mg protease | 46.0 | 2.9 A580 change/min./mg protease | 0.8
6 | COC(=O)[C@@H]1CCCN1C(=O)[C@H](C)NC(=O)OCc1ccccc1 [Pro] (Cbz-Ala-Pro-OMe) |  |  |  | 0 A580 change/min./mg protease | 0 | 0 A580 change/min./mg protease | 0 | 0 A580 change/min./mg protease | 0 | 0 A580 change/min./mg protease | 0 | trace |  | trace |  | 0 A580 change/min./mg protease | 0
